pEC50: −log10 of the molar value. Non-standard residues stand in square brackets, D forms with d. Residues, ends and D or L forms follow the SMILES beside them. Sar = CNCC(=O)O
Tests used:
Type in all cases: cell-based
[1] = target: T1, human angiotensin 2 type 1 receptor (human AT1R) (Homo sapiens, UniProt P30556); experiment: IP1 accumulation assay (IP-One Tb), human AT1R; details: cells expressing human AT1R
T1 construct: expressed in transfected cells
T1 sequence (P30556 1-359): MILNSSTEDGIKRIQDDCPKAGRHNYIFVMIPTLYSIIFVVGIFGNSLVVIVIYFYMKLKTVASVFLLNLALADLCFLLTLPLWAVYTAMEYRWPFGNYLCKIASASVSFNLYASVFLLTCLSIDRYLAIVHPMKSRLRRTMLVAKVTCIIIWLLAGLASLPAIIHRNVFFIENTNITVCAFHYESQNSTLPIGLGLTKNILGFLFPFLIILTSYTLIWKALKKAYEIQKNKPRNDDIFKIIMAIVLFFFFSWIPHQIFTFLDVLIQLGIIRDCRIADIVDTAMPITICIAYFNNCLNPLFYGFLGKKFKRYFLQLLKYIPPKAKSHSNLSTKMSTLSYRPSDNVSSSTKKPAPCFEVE
Description: (§1) A secondary measure of G protein coupling efficacy was also performed. IP3 is generated by activation of phospholipase C by Gα-q. IP3 is degraded to IP1, which can be forced to accumulate in cells by blocking degradation with lithium chloride. Thus we measured accumulation of IP1 to determine ligand efficacy for G protein activation.
(§2) IP1 accumulation generated by human and rat angiotensin 2 type 1 receptor (human AT1R and rat AT1aR, respectively) was measured with IP-One Tb kits purchased from Cisbio and used per the manufacturer's instructions. Clonal stably transfected cell lines expressing human AT1TR or rat AT1aR were used for all experiments.
(§3) For assays, 4,000 cells were seeded per well in 384-well small-volume microplates in volumes of 20 uL and allowed to grow overnight at 37° C. in 5% CO2. Cell growth media was then replaced with stimulation buffer supplied by Cisbio containing 50 mM lithium chloride. Peptides TRV-120,001 through TRV-120,035 were dissolved in deionized water to a concentration of 1 mM. For agonist detection, peptides were then further diluted in stimulation buffer to add peptide to the cells to reach final concentrations ranging from 10 uM to 1 pM. […] Following addition of peptides, cells were incubated at 37° C. in 5% CO2 for 30 minutes and then lysed with detection reagents added per manufacturer's instructions.

[2] = target: rat angiotensin 2 type 1 receptor (rat AT1aR) (Rattus norvegicus, UniProt P25095); experiment: PathHunter β-arrestin-2 recruitment assay, rat AT1aR; details: PathHunter β-arrestin HEK293 cells
Description: (§4) The proximal event in β-arrestin function mediated by GPCRs is recruitment to receptors following ligand binding and receptor phosphorylation by GRK's. Thus, the measure of β-arrestin recruitment was used to determine ligand efficacy for β-arrestin function.
(§5) B-arrestin-2 recruitment to the human and rat angiotensin 2 type 1 receptor (human AT1R and rat AT1aR, respectively) was measured with the PathHunter™ β-arrestin assay (DiscoveRx Corporation, Fremont Calif.). Cells, plasmid(s), and detection reagent(s) were purchased from DiscoveRx, and assays were performed per manufacturer's instructions. Human AT1R and rat AT1aR were cloned into the pCMV-ProLink vector, verified by sequencing, and transfected into PathHunter β-arrestin HEK293 cells. Stably transfected clonal cell lines were selected with Hygromycin and G418. These clonal cell lines were used for all experiments.
(§6) For assays, 25,000 cells were seeded per well in 96-well microplates in volumes of 90 μL and allowed to grow overnight at 37° C. in 5% CO2. Peptides of the invention were dissolved in deionized water to a concentration of 1 mM. Peptides were then further diluted in assay buffer (Hank's balanced salt solution with 20 mM HEPES) to add peptide to the cells to reach final concentrations ranging from 10 μM to 1 pM. Cells were then incubated for 60 minutes at 37° C. in 5% CO2, followed by addition of 50 μL of PathHunter Detection Reagent to each well. The microplates were then incubated at room temperature for 60 minutes, and then luminescence was measured using a NOVOstar microplate reader purchased from BMG Labtech. B-arrestin-2 recruitment to receptors was measured as relative luminescence intensity expressed in arbitrary units.
Target sequence in this assay (P32121 whole entry partner, one chain of several): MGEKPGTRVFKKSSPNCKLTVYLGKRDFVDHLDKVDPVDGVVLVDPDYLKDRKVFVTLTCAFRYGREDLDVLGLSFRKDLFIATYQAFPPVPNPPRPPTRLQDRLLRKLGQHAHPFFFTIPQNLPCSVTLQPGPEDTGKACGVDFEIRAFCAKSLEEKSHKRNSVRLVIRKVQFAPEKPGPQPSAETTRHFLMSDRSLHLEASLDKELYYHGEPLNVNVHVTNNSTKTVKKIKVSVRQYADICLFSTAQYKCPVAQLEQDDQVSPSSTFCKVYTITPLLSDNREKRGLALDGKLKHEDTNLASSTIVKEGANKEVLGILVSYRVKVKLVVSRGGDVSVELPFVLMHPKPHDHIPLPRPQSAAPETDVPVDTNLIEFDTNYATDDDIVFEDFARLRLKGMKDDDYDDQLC

[3] = target: human angiotensin 2 type 1 receptor (human AT1R) (Homo sapiens, UniProt P30556); experiment: PathHunter β-arrestin-2 recruitment assay, human AT1R; details: PathHunter β-arrestin HEK293 cells
Description: as §4, §5, §6
Target sequence in this assay (P32121 whole entry partner, one chain of several): as above

[4] = target: T2, rat angiotensin 2 type 1 receptor (rat AT1aR) (Rattus norvegicus, UniProt P25095); experiment: IP1 accumulation assay (IP-One Tb), rat AT1aR; details: cells expressing rat AT1aR
T2 construct: expressed in transfected cells
T2 sequence (P25095 1-359): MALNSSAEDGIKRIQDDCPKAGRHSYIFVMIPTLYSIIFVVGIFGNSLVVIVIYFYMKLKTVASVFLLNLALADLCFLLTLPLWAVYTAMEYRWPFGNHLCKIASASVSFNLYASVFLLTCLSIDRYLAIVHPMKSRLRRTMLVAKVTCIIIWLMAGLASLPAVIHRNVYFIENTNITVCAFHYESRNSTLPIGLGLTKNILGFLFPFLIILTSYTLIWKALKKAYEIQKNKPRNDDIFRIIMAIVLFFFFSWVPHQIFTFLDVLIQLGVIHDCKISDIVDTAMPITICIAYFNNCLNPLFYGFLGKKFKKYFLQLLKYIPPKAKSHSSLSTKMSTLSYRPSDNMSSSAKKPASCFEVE
Description: as §1, §2, §3

For `CNCC(=O)N[C@@H](CCCNC(=N)N)C(=O)N[C@H](C(=O)N[C@@H](Cc1ccc(O)cc1)C(=O)N[C@H](C(=O)N[C@@H](Cc1c[nH]cn1)C(N)=O)C(C)C)C(C)C` [SEQ ID NO:55, Sar-Arg-Val-Tyr-Val-His-NH2] (H-[Sar]RVYVH-NH2; N-terminus assumed), the “human AT1R IP One Max (%)” value [1] was 97.6%, the “rat AT1aR b-arrestin2 Max (%)” value [2] was 95.6% and the “human AT1R b-arrestin2 Max (%)” value [3] was 92.7%. For the same compound, the pEC50 [4] was 8.17 and the “rat AT1aR IP One Max (%)” value [4] was 98.8%.

For `CC[C@H](C)[C@H](NC(=O)[C@H](Cc1ccc(O)cc1)NC(=O)[C@@H](NC(=O)[C@H](CCCNC(=N)N)NC(=O)[C@@H](N)CC(=O)O)C(C)C)C(=O)N[C@@H](Cc1c[nH]cn1)C(=O)N1CCC[C@H]1C(=O)NCC(=O)O` [SEQ ID NO:56] (H-DRVYIHPG-OH; N-terminus assumed), the “human AT1R IP One Max (%)” value [1] was 96.5%, the “rat AT1aR b-arrestin2 Max (%)” value [2] was 98.5% and the pEC50 ([2]; read-out: rat AT1aR b-arrestin2 EC50) was 6.80. For the same compound, the “human AT1R b-arrestin2 Max (%)” value [3] was 104.4% and the “rat AT1aR IP One Max (%)” value [4] was 98.4%.

From patent US8486885B2, “β-arrestin effectors and compositions and methods of use thereof” (Trevena, Inc., priority 2008, dated 2013)
